# US20220142959A1, “LEUCINE, ACETYL LEUCINE, AND RELATED ANALOGS FOR TREATING DISEASE” (priority 2019, published 2022)
# Assays:
# [1] = test system: rat primary cortical neurons; assay: U18666A-mediated impairment of lysosomal fusion in rat primary cortical neurons; type: cell-based; details: co-treated with U18666A (2 μg/mL) and compound 1 mM, 24 h
# Description: FIG. 18. is a histogram of the ratio of LC3-II normalised to βIII tubulin (expressed as a percentage of untreated (n=1)) in rat primary cortical neurons that were treated with U18666A (2 μg/ml, 24 hr) in the absence or presence of ADLL, ALL, ADL, DLL, LL, DL, and LLE (1 mM, 24 hr).
# FIG. 19 is histogram of the ratio of APP-CTFs-6 and -7 normalised to their respective CTFs in untreated cells (expressed as a percentage of untreated (n=1) in rat primary cortical neurons that were treated with U18666A (2 μg/ml, 24 hr) in the absence or presence of ADLL, ALL, ADL, DLL, LL, DL, and LLE (1 mM, 24 hr).
# The efficacy of ADLL, ALL, ADL, DLL, LL, DL, and LLE in alleviating the U18666A-mediated impairment of autophagosome-lysosome fusion and endosomal lysosomal fusion was investigated. In this cell-based assay of impaired EAL flux, the reappearance of basal levels of APP CTFs-6 and -7, provided an indication of improved endosomal-lysosomal fusion.
# Neurons were co-treated with U18666A (2 μg/mL) along with ADLL, ALL, ADL, DLL, LL, DL, and LLE (1 mM, 24 h).
# [2] = CCI induced TBI mice: food intake and body weight; type: in vivo; details: data not shown
# Description: (§1) Controlled cortical impact (CCI) induced TBI was performed in male C57BL6/J mice (20-25 g). Briefly, after a 10-mm midline incision was made over the skull, the skin and fascia were retracted, and a 4-mm craniotomy was made on the central aspect of the left parietal bone of mice under surgical anesthesia (2-3% isoflurane evaporated in a gas mixture containing 70% N20 and 30% 02). Moderate injury was induced in the exposed brain by a custom microprocessor-controlled and compressed air driven pneumatic impactor of 3.5 mm diameter tip with the impact velocity of 6 m/s and a deformation depth of 2 mm.
# (§2) N-Acetyl-L-Leucine (“NAL” or “NALL”) was dissolved in ethanol to prepare a 50 mg/ml solution which was then diluted in water to give a 10 mg/ml solution. About 0.25 ml of the NAL solution (10 mg/ml) was orally administered in mice at a […] (2.5 mg NAL/25 g mouse) via oral gavage each day after CCI induced TBI for 4 days. Mice were also fed with NAL at 0.5 mg/kg chow powder chow mixed with diet gel for up to 7 days after injury.
# LC3-II and p62/SQSTM1 = assay: Western blot of autophagy flux markers in cortex after CCI induced TBI; type: in vivo, mice
# Description: as §1, §2
# Around 5 mm tissue of ipsilateral cortex around the site of injury from TBI mice or the corresponding tissue of same volume around the same cortical region from sham mice were dissected and processed. […] Protein bands were detected using chemiluminiscence kit (Pierce, 34076) and visualized using Chemi-doc system (Bio-Rad). Band intensity was analyzed using Image Lab software (Bio-Rad) and normalized to loading control (β-Actin). […]
# Autophagy is a lysosome dependent cellular degradation process that is disrupted due to lysosomal damage after TBI. […] Whether attenuation of cell death following NALL treatment in TBI mice is mediated through the restoration of autophagy flux was assessed.
# The levels of LC3-II and p62/SQSTM1 in the cortical tissue lysates prepared from vehicle and NAL fed naïve and TBI mice were determined by western blot analysis. A decrease in the levels of LC3-II in the brain of NALL fed mice as compared to vehicle treated mice at day 1 after TBI was detected. […]
# [3] = test system: cerebellar Purkinje cells; assay: Purkinje cell survival in Npc1−/− mice; type: in vivo; details: 59 days of age, compared to Npc1−/− UT
# Text: FIG. 46 is an image showing cerebellar Purkinje cell loss progressing from anterior to posterior lobes and microglial activation in untreated Npc1^−/− mice and Npc1^−/− mice treated with ADLL, ALL, and ADL. Cerebellums were stained with calbindin-b (Purkinje cells) or CD68 (activated microglia).
# FIG. 47 is a scatter graph showing Purkinje cell survival at 59 days of age in untreated Npc1^−/− mice and Npc1^−/− mice treated with ADLL, ALL, and ADL.
# The combination of increased survival of neurons and a less inflammatory environment in the brain could improve brain function, quality of life, and delay the progression of disease in human subjects.
structure (smiles),measurement,setting,value
"CC(=O)N[C@@H](CC(C)C)C(=O)O [ALL, acetyl-L-leucine]",CTF-6 and -7 (endosomal-lysosomal fusion),[1],reappearance of basal amounts
same,LC3-II levels,[1],lower than the basal levels
same,change in body weight,[2]; NALL treated TBI mice,no appreciable change
same,food intake,[2]; sham vs TBI mice fed with NALL,No significant difference
same,p62/SQSTM1 level in the cortex,LC3-II and p62/SQSTM1; NALL fed vs vehicle treated mice after TBI,decrease
same,levels of LC3-II in the brain,"LC3-II and p62/SQSTM1; NALL fed vs vehicle treated mice, day 1 after TBI",decrease
same,autophagy flux,LC3-II and p62/SQSTM1; mouse cortices after TBI,improves autophagy flux
same,Purkinje cell survival in any cerebellar lobules,[3],did not improve
